# Experimental data as given in patent US20260102407A1, “TREATMENT METHODS” (priority 2020, published 2026).
# How the values were obtained:
# Assay type in all cases: in vivo
# [1] = system: Brown Norway pigmented rats; assay: Rat choroidal laser injury model, fluorescein leakage; conditions: 192 μg IVT, Days 0 and 7, HRA score Days 14 and 21
# Description: (§1) Rat choroidal laser injury model. Male Brown Norway pigmented rats (8-14 week-old) were anesthetized by an intramuscular injection of Rompun® (xylazine)/Imalgene® (ketamine). Pupils were dilated by instillation of one drop of 0.5% tropicamide before laser burn. Six burns were created in both eyes on Day 0 by applying 170 mW of 532 nm laser light (Viridis laser, Quantel, France) on 75 μm spots around the optic nerve, between the main retinal vessel branches, for 0.1s, through the slit lamp and contact lens. Production of a bubble at the time of laser application confirmed the rupture of Bruch's membrane. Compounds in vehicle (saline containing 0.01% DMSO and 0.5% Tween 80, sonicated) in 2-5 μl were injected IVT on Days 0 and 7 under an operating microscope using a 30G needle mounted on a 100 μl Hamilton syringe. Kenacort was administered IVT into each eye on Day 0. Alternatively, aflibercept/Eylea in vehicle (saline) was injected IVT 6 times (Days 0, 3, 7, 10, 14, 17). […] After anaesthesia, 10% sodium fluorescein (250 μl/100 g body weight) was injected subcutaneously, and ocular fluorescence was recorded 10 min after dye injection. Fluorescein leakage was evaluated on Days 14 and 21 in the angiograms by two examiners masked to the study groups and graded for fluorescein intensity as follows: score 0: no leakage; 1: slightly stained; 2: moderately stained; 3: strongly stained.
# [2] = system: VCAM-1; assay: Immunohistochemical staining of rat retina, VCAM-1; conditions: lasered rat retinas
# Description: as §1, with “membrane.” for “membrane. Compounds in vehicle (saline containing 0.01% DMSO and 0.5% Tween 80, sonicated) in 2-5 μl were injected IVT on Days 0 and 7 under an operating microscope using a 30G needle mounted on a 100 μl Hamilton syringe. Kenacort was administered IVT into each eye on Day 0. Alternatively, aflibercept/Eylea in vehicle (saline) was injected IVT 6 times (Days 0, 3, 7, 10, 14, 17).”
# Immunohistochemical staining of rat retina. […] IOD of positive staining (red chromogen) was assessed for CD31, VEGF-A165, pERK, FosB and VCAM-1 using Image-Pro Plus software (Cybernetics, Bethesda, MD). IOD in IPL and INL was quantified for CD31; OPL to OS for VEGF-A165; INL to ONL for pERK; GCL to OS for FosB; OLM for VCAM-1, using Image-Pro Plus. […]
# [3] = system: FosB; assay: Matrigel plug assay, FosB staining; conditions: C57BL/6 mice; 2.5 mg/mouse; 7 days
# Protocol: Matrigel plug assay. Matrigel (500 μl) containing VEGF-A165 (100 ng/ml), heparin (10U) and BT2 or BT3 (2.5 mg/mouse) or its vehicle (saline containing 0.01% DMSO and 0.5% Tween 80) was injected subcutaneously into the left flanks of male 8 week-old C57BL/6 mice. After 7d the mice were sacrificed by CO2 asphyxiation and the plugs carefully removed. Formalin-fixed paraffin embedded sections were prepared from Matrigel plugs for immunohistological assessment. Heat-induced epitope retrieval was applied to all deparaffinized sections (4 μm Superfrost slides) in citrate buffer, pH 6 for 5 min at 110° C. Immunostaining for all groups with a given antibody was performed simultaneously and development time was identical. […]
# Slides were scanned using an Aperio ScanScope XT slide scanner (Leica Biosystems, Mt Waverley, Vic Australia) and images captured using ImageScope software (Leica Biosystems). Positive intraplug staining was assessed using Image-Pro Plus software (Cybernetics, Bethesda, MD) in 5-12 randomly selected fields of view for each plug photographed under 10× (CD31), 20× (VCAM-1) and 40× (FosB) objectives and expressed as integrated optical density (IOD, the product of calibrated intensity (optical density) and area, i.e. IOD=intensity (mean)×area) (Media Cybernetics) (Liu, H., et al., Sci Rep 6, 21319 (2016)). […]
structure (smiles),measurement,setting,value
"CCOC(=O)Nc1ccc2c(c1)C(=O)N(CC)c1ccccc1O2 [BT2, (10-ethyl-11-oxo-10,11-dihydro-dibenzo[b,f][1,4]oxazepin-2-yl)-carbamic acid ethyl ester]",reduction of retinal permeability (fluorescein leakage),[1],~50%
same,inducible VCAM-1 expression in the OLM,[2],reduced inducible VCAM-1 expression
same,FosB immunoreactivity in Matrigel plugs,[3],inhibited
